Consider 15 compounds from patent US20260167623A1 (NIKANG THERAPEUTICS, INC., priority 2022, published 2026).

Each structure is given as a SMILES string.

For the assay, the target named is T1, CDK2 (Homo sapiens, UniProt P24941).
T1 construct: High-Throughput Measurement of Cellular Endogenous CDK2; endogenous in cells; host or cells: OVCAR3
Briefly: Inhibition of CDK2: phospho-Rb (S807/811) HTRF measurement in OVCAR3 cells, 24 h. In kind it is cell-based. Particulars: 24 h compound treatment, read-out: pRB_OVCAR3_24h. On the procedure: Inhibition of CDK2: Phospho-R^b Measurement in Cells
Phosphorylation of RB protein at S807/811 were measured using HTRF phospho-RB cellular kits (Cat #64RBS807PEG) from Cisbio.
On Day 1, OVCAR3 (CDK2 dependent cell line) cells were seeded into 96-well tissue-culture treated plates at 20,000 cells/well in 200 μL and incubated overnight at 37° C. in CO2 atmosphere. On Day 2, the cells were treated with test compounds at concentrations from 0.3 to 10,000 nM using HP D300 digital dispenser. Twenty-four hours after compound treatment, cell culture media is removed by flicking the plate and tapping the plate against clean paper towel. 30 μL 1× lysis buffer was supplemented from the kit was added to each well and the plate was incubated at room temperature on shaker for 30 min. After homogenization by pipetting up and down, 8 μL cell lysate from 96-well cell culture plate was transferred to 384-well small volume white detection plate. 2 μL premixed detection solution was added and the plate was covered with sealer. To prepare the detection solution, d2 conjugated-phospho-RB antibody and Eu-cryptate conjugated phosphor-RB antibody were diluted into detection buffer following manufacturer's instruction. Detection plates were incubated for 4 h at room temperature and read on ClarioStar (BMG Labtech) in TR-FRET mode (665 nM and 620 nM). The TR-FRET ratio (665 nM/620 nM) was plotted against the compound concentration and normalized to DMSO controls. Half maximal inhibition concentration (IC50) values were calculated with a four-parameter logistic fit using GraphPad Prism (version 8; La Jolla, CA).
For orientation: Time-resolved FRET reads energy transfer from a long-lived donor to a nearby acceptor.
Take `Cn1nc(N2CCC(=O)NC2=O)c2ccc(C3CCN(CC4CCN(c5cccc(S(=O)(=O)N6CCC(Nc7ncc(CC(F)(F)F)cn7)CC6)c5)CC4)CC3)cc21` [Example 243, 1-(1-methyl-6-(1-((1-(3-((4-((5-(2,2,2-trifluoroethyl)pyrimidin-2-yl)amino)piperidin-1-yl)sulfonyl)phenyl)piperidin-4-yl)methyl)piperidin-4-yl)-1H-indazol-3-yl)dihydropyrimidine-2,4(1H,3H)-dione]: the IC50 was in the range of 500 to 2500 nM. The value for `Cn1cc(C2CCC(=O)NC2=O)c2ccc(C3CCN(CC4CCN(c5cccc(S(=O)(=O)N6CCC(Nc7ncc(Cl)cn7)CC6)c5)CC4)CC3)cc21` (stereo not drawn) [Example 254, 3-(6-(1-((1-(3-((4-((5-chloropyrimidin-2-yl)amino)piperidin-1-yl)sulfonyl)phenyl)piperidin-4-yl)methyl)piperidin-4-yl)-1-methyl-1H-indol-3-yl)piperidine-2,6-dione] was 100 to 500 nM.

Consider `Cn1nc(N2CCC(=O)NC2=O)c2ccc(C3CCN(CC4(C#N)CCN(c5cccc(S(=O)(=O)N6CCC(Nc7ncc(Cl)cn7)CC6)c5)CC4)CC3)cc21` [Example 164, 1-(3-((4-((5-chloropyrimidin-2-yl)amino)piperidin-1-yl)sulfonyl)phenyl)-4-((4-(3-(2,4-dioxotetrahydropyrimidin-1(2H)-yl)-1-methyl-1H-indazol-6-yl)piperidin-1-yl)methyl)piperidine-4-carbonitrile], for which the IC50 is more than 2500 nM.

For `Cn1nc(N2CCC(=O)NC2=O)c2ccc(C3CCN(CC4CCN(c5ccc(C#N)c(S(=O)(=O)N6CCC(Nc7ncc(Cl)cn7)CC6)c5)CC4)CC3)cc21` [Example 161, 2-((4-((5-chloropyrimidin-2-yl)amino)piperidin-1-yl)sulfonyl)-4-(4-((4-(3-(2,4-dioxotetrahydropyrimidin-1(2H)-yl)-1-methyl-1H-indazol-6-yl)piperidin-1-yl)methyl)piperidin-1-yl)benzonitrile], the IC50 is more than 2500 nM. The value for `O=C1CCC(NC(=O)c2ccc(C3CCN(CC4CCN(c5cccc(S(=O)(=O)N6CCC(Nc7ncc(C(F)(F)F)cn7)CC6)c5)CC4)CC3)cc2F)C(=O)N1` (stereo not drawn) [Example 236, N-(2,6-dioxopiperidin-3-yl)-2-fluoro-4-(1-((1-(3-((4-((5-(trifluoromethyl)pyrimidin-2-yl)amino)piperidin-1-yl)sulfonyl)phenyl)piperidin-4-yl)methyl)piperidin-4-yl)benzamide] was 100 to 500 nM.

As to `Cn1nc(N2CCC(=O)NC2=O)c2ccc(C3CCN(CC4CCN(S(=O)(=O)c5ccc(Nc6ncc(C(F)(F)F)cn6)c(F)c5)CC4)CC3)cc21` [Example 18, 1-(6-(1-((1-((3-fluoro-4-((5-(trifluoro-methyl)pyrimidin-2-yl)amino)phenyl)-sulfonyl)piperidin-4-yl)methyl)piperidin-4-yl)-1-methyl-1H-indazol-3-yl)dihydropyrimidine-2,4(1H,3H)-dione], the IC50 fell in the range of 500 to 2500 nM. Under `Cn1nc(N2CCC(=O)NC2=O)c2ccc(C3CCN(CC4CC5(C4)CN(c4cccc(S(=O)(=O)N6CCC(Nc7ncc(Cl)cn7)CC6)c4)C5)CC3)cc21` [Example 132, 1-(6-(1-((2-(3-((4-((5-chloropyrimidin-2-yl)amino)piperidin-1-yl)sulfonyl)phenyl)-2-azaspiro[3.3]heptan-6-yl)methyl)piperidin-4-yl)-1-methyl-1H-indazol-3-yl)dihydropyrimidine-2,4(1H,3H)-dione] stands 1 to 100 nM; under `Cn1nc(N2CCC(=O)NC2=O)c2ccc(C3CCN(C[C@@H]4CCCN4c4cccc(S(=O)(=O)N5CCC(Nc6ncc(OC(F)F)cn6)CC5)c4)CC3)cc21` [Example 259, (S)-1-(6-(1-((1-(3-((4-((5-(difluoromethoxy)pyrimidin-2-yl)amino)piperidin-1-yl)sulfonyl)phenyl)pyrrolidin-2-yl)methyl)piperidin-4-yl)-1-methyl-1H-indazol-3-yl)dihydropyrimidine-2,4(1H,3H)-dione], 500 to 2500 nM. Under `Cn1nc(N2CCC(=O)NC2=O)c2ccc(C3CCN(CC4CCN(c5cccc(S(=O)(=O)N6CCC(Nc7ncc(C(F)F)cn7)CC6)c5)CC4)CC3)cc21` [Example 195, 1-(6-(1-((1-(3-((4-((5-(difluoromethyl)pyrimidin-2-yl)amino)piperidin-1-yl)sulfonyl)phenyl)piperidin-4-yl)methyl)piperidin-4-yl)-1-methyl-1H-indazol-3-yl)dihydropyrimidine-2,4(1H,3H)-dione] stands 500 to 2500 nM; under `O=C1CCC(N2Cc3cc(N4CCN(CC5CCN(c6cccc(S(=O)(=O)N7CCC(Nc8ncc(C(F)(F)F)cn8)CC7)c6)CC5)CC4)c(F)cc3C2=O)C(=O)N1` (stereo not drawn) [Example 101, 3-(6-fluoro-1-oxo-5-(4-((1-(3-((4-((5-(trifluoromethyl)pyrimidin-2-yl)amino)-piperidin-1-yl)sulfonyl)phenyl)piperidin-4-yl)methyl)piperazin-1-yl)isoindolin-2-yl)piperidine-2,6-dione], 100 to 500 nM; under `Cn1nc(N2CCC(=O)NC2=O)c2ccc(C3CCN(Cc4cnn(C5CCN(S(=O)(=O)N6CCC(Nc7ncc(Cl)cn7)CC6)CC5)c4)CC3)cc21` [Example 163, 1-(6-(1-((1-(1-((4-((5-chloropyrimidin-2-yl)amino)piperidin-1-yl)sulfonyl)piperidin-4-yl)-1H-pyrazol-4-yl)methyl)piperidin-4-yl)-1-methyl-1H-indazol-3-yl)dihydropyrimidine-2,4(1H,3H)-dione], more than 2500 nM.

With `Cn1nc(N2CCC(=O)NC2=O)c2ccc(C3CN(CC4CCN(c5cccc(S(=O)(=O)N6CCC(Nc7ncc(C(F)(F)F)cn7)CC6)c5)CC4)C3)cc21` [Example 118, 1-(1-methyl-6-(1-((1-(3-((4-((5-(trifluoro-methyl)pyrimidin-2-yl)amino)piperidin-1-yl)sulfonyl)phenyl)piperidin-4-yl)methyl)-azetidin-3-yl)-1H-indazol-3-yl)dihydropyrimidine-2,4(1H,3H)-dione], the IC50 is 1 to 100 nM. The value for `O=C1CCN(c2nn(CC(F)(F)F)c3cc(C4CCN(Cc5cccc(S(=O)(=O)N6CCC(Nc7ncc(C(F)(F)F)cn7)CC6)c5)CC4)ccc23)C(=O)N1` [Example 5, 1-(1-(2,2,2-trifluoroethyl)-6-(1-(3-((4-((5-(trifluoromethyl)pyrimidin-2-yl)amino)-piperidin-1-yl)sulfonyl)benzyl)-piperidin-4-yl)-1H-indazol-3-yl)dihydropyrimidine-2,4(1H,3H)-dione] was 100 to 500 nM; that for `CO[C@@H]1CN(S(=O)(=O)c2cccc(N3CCC(CN4CCC(c5ccc6c(N7CCC(=O)NC7=O)nn(C)c6c5)CC4)CC3)c2)CC[C@@H]1Nc1ncc(Cl)cn1` [Example 218, 1-(6-(1-((1-(3-(((3R,4S)-4-((5-chloropyrimidin-2-yl)amino)-3-methoxypiperidin-1-yl)sulfonyl)phenyl)piperidin-4-yl)methyl)piperidin-4-yl)-1-methyl-1H-indazol-3-yl)dihydropyrimidine-2,4(1H,3H)-dione] was more than 2500 nM; that for `CO[C@@H]1CN(S(=O)(=O)c2cccc(N3CCC(CN4CCC(c5ccc6c(N7CCC(=O)NC7=O)nn(C)c6c5)CC4)CC3)c2)CC[C@H]1Nc1ncc(Cl)cn1` (racemic) [Example 219, Rac-1-(6-(1-((1-(3-(((3R,4R)-4-((5-chloropyrimidin-2-yl)amino)-3-methoxypiperidin-1-yl)sulfonyl)phenyl)piperidin-4-yl)methyl)piperidin-4-yl)-1-methyl-1H-indazol-3-yl)dihydropyrimidine-2,4(1H,3H)-dione] was more than 2500 nM.
